Laboratory results: patent US11214803B2, “Modulators of YAP1 expression” (Ionis Pharmaceuticals, Inc., priority 2019, dated 2022)
Strand notation (5' to 3'): a small letter for the sugar, then the base; units joined by * are phosphorothioate-linked, units joined directly phosphodiester-linked; [ ] holds rarer units or linkages, { } end groups; capitals alone tell only the bases. k = constrained ethyl (cEt); [5mC] = 5-methylcytosine; d = 2'-deoxy (DNA)

What follows are substances tested on Yap1 mRNA (assay: Antisense inhibition of human Yap1 in A-431 cells by cEt gapmers, single dose (Example 4, RTS4814)). Conditions: Table 14; A-431 cells, 5,000 cells per well, free uptake, 2,000 nM, approximately 48 hours; RTS4814; normalized to RIBOGREEN; Yap1 mRNA relative to untreated control; * = targets amplicon region of primer probe set.
Assay type: cell-based
Procedure: Modified oligonucleotides were designed to target a Yap1 nucleic acid and were tested for their effect on Yap1 mRNA level in vitro. The modified oligonucleotides were tested in a series of experiments that had similar culture conditions. Cultured A-431 cells at a density of 5,000 cells per well were treated using free uptake with 2,000 nM of modified oligonucleotide. After a treatment period of approximately 48 hours, RNA was isolated from the cells and Yap1 mRNA levels were measured by quantitative real-time RTPCR. Human primer probe set RTS4814 was used to measure mRNA levels. Yap1 mRNA levels were normalized to total RNA content, as measured by RIBOGREEN®. Results are presented in the tables below as percent control of the amount of Yap1 mRNA relative to untreated control cells (% UTC). The modified oligonucleotides with percent control values marked with an asterisk (*) target the amplicon region of the primer probe set. Additional assays may be used to measure the potency and efficacy of the modified oligonucleotides targeting the amplicon region.
The newly designed modified oligonucleotides in the Tables below were designed as 3-10-3 cEt gapmers. The gapmers are 16 nucleosides in length, wherein the central gap segment comprises of ten 2′-deoxynucleosides and is flanked by wing segments on the 5′ direction and the 3′ direction comprising three nucleosides each. Each nucleoside in the 5′ wing segment and each nucleoside in the 3′ wing segment has a cEt sugar modification. The internucleoside linkages throughout each gapmer are phosphorothioate (P═S) linkages. All cytosine residues throughout each gapmer are 5-methylcytosines.
“Start site” indicates the 5′-most nucleoside to which the gapmer is targeted in the human gene sequence. “Stop site” indicates the 3′-most nucleoside to which the gapmer is targeted human gene sequence. […] Activity of the modified oligonucleotide may be defined in a different experiment.

Row | Substance | YAP1 (% UTC)
1 | 1074368 (antisense kG*kA*kT*dA*dG*dT*dA*dT*d[5mC]*dA*d[5mC]*d[5mC]*dT*kG*kT*kA) [Compound 1074368] | 8 % UTC
2 | 1074688 (antisense kT*k[5mC]*k[5mC]*d[5mC]*d[5mC]*d[5mC]*dT*dA*dA*dG*d[5mC]*dT*dA*kA*kA*kG) [Compound 1074688] | 83 % UTC
3 | 1074816 (kG*kA*kA*dT*dA*dT*dT*dG*d[5mC]*d[5mC]*dA*d[5mC]*d[5mC]*k[5mC]*kA*k[5mC]; antisense) [Compound 1074816] | 15 % UTC
4 | 1076256 (kT*kT*kA*dT*dT*dT*dA*dG*dG*d[5mC]*d[5mC]*d[5mC]*d[5mC]*kA*kT*kA; antisense) [Compound 1076256] | 4 % UTC
5 | 1074752 (k[5mC]*kA*kT*dT*dA*dG*dG*dA*dA*d[5mC]*dA*dA*dG*kG*kA*k[5mC]; antisense) [Compound 1074752] | 10 % UTC
6 | 1076192 (k[5mC]*kT*kA*d[5mC]*dA*dA*d[5mC]*d[5mC]*dT*dG*dG*dA*d[5mC]*kT*kT*kT; antisense) [Compound 1076192] | 34 % UTC
7 | 1074240 (antisense k[5mC]*kT*kG*dG*d[5mC]*dA*dG*dA*dG*dG*dT*dA*d[5mC]*kA*kT*k[5mC]) [Compound 1074240] | 29 % UTC
8 | 1075584 (kA*kA*kT*dA*dA*dT*dT*dG*dA*d[5mC]*d[5mC]*dT*dA*kG*k[5mC]*kA; antisense) [Compound 1075584] | 57 % UTC
9 | 1074400 (antisense kG*kA*kT*dT*dT*dA*dG*dA*dA*dT*dT*d[5mC]*dA*kG*kT*k[5mC]) [Compound 1074400] | 42 % UTC

Same assay, conditions: Table 15; A-431 cells, 5,000 cells per well, free uptake, 2,000 nM, approximately 48 hours; RTS4814; normalized to RIBOGREEN; Yap1 mRNA relative to untreated control; * = targets amplicon region of primer probe set

Row | Substance | YAP1 (% UTC)
10 | 1076449 (k[5mC]*k[5mC]*kT*dT*dA*dT*dA*dA*dT*dG*d[5mC]*dA*dA*kT*k[5mC]*k[5mC]; antisense) [Compound 1076449] | 2 % UTC
11 | 1076001 (kA*k[5mC]*kT*d[5mC]*dA*dA*dG*dG*dA*dA*d[5mC]*d[5mC]*dA*kT*kT*kT; antisense) [Compound 1076001] | 24 % UTC
12 | 1076321 (k[5mC]*kA*kA*dT*dA*dT*d[5mC]*dA*d[5mC]*dT*dT*dG*dG*kG*k[5mC]*k[5mC]; antisense) [Compound 1076321] | 63 % UTC
13 | 1074529 (kG*k[5mC]*kA*dG*dA*d[5mC]*dT*dG*d[5mC]*d[5mC]*d[5mC]*d[5mC]*dA*kA*k[5mC]*k[5mC]; antisense) [Compound 1074529] | 50 % UTC

Same assay, conditions: Table 16; A-431 cells, 5,000 cells per well, free uptake, 2,000 nM, approximately 48 hours; RTS4814; normalized to RIBOGREEN; Yap1 mRNA relative to untreated control cells

Row | Substance | YAP1 (% UTC)
14 | 1075874 (k[5mC]*kT*kT*dA*dA*d[5mC]*dA*dA*d[5mC]*d[5mC]*d[5mC]*dT*dA*k[5mC]*kG*kA; antisense) [Compound 1075874] | 113 % UTC
15 | 1076258 (k[5mC]*kT*kT*dT*dA*dG*dG*dT*dG*d[5mC]*d[5mC]*dT*d[5mC]*k[5mC]*kT*kT; antisense) [Compound 1076258] | 10 % UTC
16 | 1076418 (kT*kA*kT*dA*dA*dT*dA*dA*d[5mC]*d[5mC]*d[5mC]*dA*dT*kT*kG*kT; antisense) [Compound 1076418] | 63 % UTC
17 | 1074210 (antisense kT*k[5mC]*k[5mC]*dG*dG*dA*dG*d[5mC]*d[5mC]*dT*d[5mC]*dA*dT*kG*kG*kG) [Compound 1074210] | 113 % UTC
18 | 1074338 (antisense kG*kG*kA*dT*dT*dT*dT*dG*dA*dG*dT*d[5mC]*d[5mC]*k[5mC]*kA*k[5mC]) [Compound 1074338] | 77 % UTC
19 | 1074178 (antisense kG*k[5mC]*k[5mC]*dT*d[5mC]*d[5mC]*d[5mC]*d[5mC]*d[5mC]*dG*dA*d[5mC]*dG*k[5mC]*kG*k[5mC]) [Compound 1074178] | 95 % UTC
20 | 1075330 (kG*kA*kG*dG*dG*dA*dA*dA*dA*d[5mC]*dT*dT*dT*kG*k[5mC]*kA; antisense) [Compound 1075330] | 63 % UTC
21 | 1076322 (kA*kT*kT*dT*dA*d[5mC]*dA*dA*dG*dT*dG*dA*dG*k[5mC]*kA*k[5mC]; antisense) [Compound 1076322] | 21 % UTC

Same assay, conditions: Table 17; A-431 cells, 5,000 cells per well, free uptake, 2,000 nM, approximately 48 hours; RTS4814; normalized to RIBOGREEN; Yap1 mRNA relative to untreated control cells

Row | Substance | YAP1 (% UTC)
22 | 1075555 (kG*k[5mC]*k[5mC]*dA*dA*dA*dA*dA*dT*dT*d[5mC]*dT*dT*kG*k[5mC]*kA; antisense) [Compound 1075555] | 92 % UTC
23 | 1074211 (antisense k[5mC]*kT*kT*d[5mC]*d[5mC]*dG*dG*dA*dG*d[5mC]*d[5mC]*dT*d[5mC]*kA*kT*kG) [Compound 1074211] | 67 % UTC
24 | 1076035 (kG*kT*kA*dA*dT*dT*dA*dG*dA*dA*dA*d[5mC]*dT*kT*kG*kG; antisense) [Compound 1076035] | 9 % UTC
25 | 1074787 (k[5mC]*kA*kA*d[5mC]*d[5mC]*dA*dT*dA*dA*dG*dT*dA*dG*kA*kT*k[5mC]; antisense) [Compound 1074787] | 13 % UTC
26 | 1076419 (kA*kT*kA*dT*dA*dA*dT*dA*dA*d[5mC]*d[5mC]*d[5mC]*dA*kT*kT*kG; antisense) [Compound 1076419] | 47 % UTC
27 | 1075171 (antisense k[5mC]*k[5mC]*k[5mC]*d[5mC]*dA*dA*dT*dA*dT*dA*dA*dA*dG*kA*kA*k[5mC]) [Compound 1075171] | 88 % UTC

Same assay, conditions: Yap1 mRNA remaining as percent of untreated control; 3-10-3 cEt gapmers; A-431 cells; Table 36

Row | Substance | YAP1 (% UTC)
28 | 1075478 (k[5mC]*kA*kT*dT*dT*dT*dG*dA*dA*d[5mC]*d[5mC]*d[5mC]*dT*kT*kT*kA; antisense) [compound 1075478] | 20 % UTC
29 | 1074934 (antisense k[5mC]*kA*kG*dG*dA*dG*dA*d[5mC]*dT*dA*dT*dA*d[5mC]*kA*kA*k[5mC]) [compound 1074934] | 74 % UTC
30 | 1075606 (antisense kG*k[5mC]*kT*dA*dA*dA*d[5mC]*d[5mC]*dT*dA*d[5mC]*dA*d[5mC]*kG*k[5mC]*kT) [compound 1075606] | 82 % UTC
31 | 1075670 (antisense kT*kA*kT*dA*dT*dA*dT*dG*dA*dT*dG*dG*dA*k[5mC]*kT*kG) [compound 1075670] | 39 % UTC
32 | 1074390 (k[5mC]*kT*kG*d[5mC]*dA*dG*dA*d[5mC]*dT*dT*dG*dG*d[5mC]*kA*kT*k[5mC]; antisense) [compound 1074390] | 64 % UTC
33 | 1074646 (antisense kA*kA*kA*dT*dT*dG*dA*dA*dG*dG*dG*d[5mC]*d[5mC]*kA*kA*kA) [compound 1074646] | 39 % UTC

Same assay, conditions: Yap1 mRNA remaining as percent of untreated control; 3-10-3 cEt gapmers; A-431 cells; Table 37

Row | Substance | YAP1 (% UTC)
34 | 1075191 (kA*k[5mC]*kG*dG*dG*dA*dA*dA*dG*dA*dA*dA*dG*kG*k[5mC]*k[5mC]; antisense) [compound 1075191] | 83 % UTC
35 | 1075255 (kA*kA*kA*dT*dA*dT*d[5mC]*d[5mC]*dG*dT*dG*dT*d[5mC]*k[5mC]*kT*k[5mC]; antisense) [compound 1075255] | 16 % UTC
36 | 1074551 (DNA kA*kA*kT*dA*dT*d[5mC]*dT*dA*d[5mC]*d[5mC]*dG*dT*dA*kT*kG*k[5mC]; antisense) [compound 1074551] | 58 % UTC
37 | 1075927 (antisense kG*k[5mC]*kT*dT*dA*dA*dA*dA*dT*d[5mC]*dA*dT*dG*kT*kA*kG) [compound 1075927] | 32 % UTC
38 | 1074807 (k[5mC]*k[5mC]*kA*dT*dA*dT*dA*dG*dA*dA*dG*dG*d[5mC]*kA*kT*kG; antisense) [compound 1074807] | 75 % UTC
39 | 1076279 (k[5mC]*kA*kA*dT*dA*dA*dG*dG*dA*d[5mC]*dA*dG*dG*kA*k[5mC]*k[5mC]; antisense) [compound 1076279] | 71 % UTC

Same assay, conditions: table after Table 37, headed TABLE 32 (gapmers targeting SEQ ID NO.: 3); A-431 cells, free uptake, 2,000 nM, approximately 48 hours, RTS4814

Row | Substance | YAP1 (% UTC)
40 | 1074882 (kG*k[5mC]*kT*dA*dA*d[5mC]*dT*d[5mC]*d[5mC]*dT*dG*d[5mC]*d[5mC]*kG*kA*kA; antisense) [compound 1074882] | 73 % UTC
